Each block holds one molecule with its values, some of them ahead of it.
What was measured:
Type in all cases: in vivo
[1] = test system: rabbit illiac arteries; assay: Example 2: drug-loaded Atrium Flyer stents vs Taxus Express in rabbit iliac arteries for 28 days, histomorphic and histopathologic analyses; settings: for EEL Area / IEL Area / Intimal Area / Lumen Area / Stenosis: mean ± SD
Procedure: Histomorphic and histopathologic analyses are then performed.

[2] = test system: rabbit illiac arteries; assay: Example 1: stents implanted in rabbit iliac arteries for 28 days, histomorphic and histopathologic analyses; set-up: Injury Score / Fibrin Score / Inflamm. Score: scale not given here; settings: for % Endothel. / % struts with Fibrin / % struts with RBC / EEL Area / Fibrin Score / IEL Area / Inflamm. Score / Injury Score / Intimal Area / Intimal Thick. / Lumen Area / Medial Area / Medial Thick. / Stenosis / Struts with Giant cells: Atrium Flyer ALPHA-3 coated stent, mean ± SD
Procedure: The Atrium Flyer is compared with bare metal stents, the Atrium Flyer coated with ALPHA-3 without drugs, and Cypher™ drug eluting stent. Histomorphic and histopathologic analyses are then performed.

[3] = test system: rabbit's iliac vessel; assay: Rapamycin drug eluting stents in rabbit iliac vessel, inflammation (inventors' earlier studies)
Description: The inventors postulate, based on these animal study results, that one consequence of these types of drugs is retarded endothelial cell coverage, and that current drug eluting stents promote more chronic inflammation than would normally be present with a non drug eluting bare metal stent.

[4] = test system: rabbit iliacs; assay: Calcineurin inhibiting compounds after vascular injury in rabbit iliacs (inventors' earlier studies); settings: local delivery, also rat, by reducing giant cell and eosinophil formation
Description: Studies in rabbit iliacs following vascular injury conducted by and/or on behalf of the inventors show the benefits of using calcineurin inhibiting compounds like Tacrolimus, Cyclosporin A (CsA) and Cyclosporin derivatives, in small animals like the rat, and in rabbits. […] Such vascular injury and sirolimus medicated inflammation can be characterized as having excessive giant cell formation and esinophil propagation.

[5] = Atrium Flyer ALPHA-3 coated stent loaded with high dose of the drug, 28 days
[6] = Atrium Flyer ALPHA-3 coated stent loaded with low dose of the drug, 28 days
[7] = Atrium Flyer ALPHA-3 coated stent loaded with mid-dose of the drug, 28 days
[8] = sirolimus = Atrium drug coated stents, Cypher = commercial stent

Molecule: O=C1CCc2cc(OCCCCc3nnnn3C3CCCCC3)ccc2N1 [Cilostazol, cilostazol]
EEL Area [1, 5]: 5.73 ± 0.31 mm^2 | IEL Area [1, 5]: 5.47 ± 0.26 mm^2 | Intimal Area [1, 5]: 1.245 ± 0.303 mm^2 | Lumen Area [1, 5]: 4.25 ± 0.42 mm^2 | Stenosis [1, 5]: 22.7 ± 5.9% | EEL Area [1, 6]: 5.80 ± 0.22 mm^2 | IEL Area [1, 6]: 5.51 ± 0.21 mm^2 | Intimal Area [1, 6]: 1.246 ± 0.115 mm^2 | Lumen Area [1, 6]: 4.26 ± 0.28 mm^2 | Stenosis [1, 6]: 22.7 ± 2.4% | EEL Area [1, 7]: 5.70 ± 0.16 mm^2 | IEL Area [1, 7]: 5.43 ± 0.14 mm^2 | Intimal Area [1, 7]: 1.257 ± 0.321 mm^2 | Lumen Area [1, 7]: 4.25 ± 0.39 mm^2 | Stenosis [1, 7]: 23.0 ± 5.7% | reduction in neointima (in words) ([1]; Atrium Flyer coated stents, 28 days): No reduction in neointima

arterial healing (in words) ([1]; rabbit, in vivo): (greater) arterial healing
Molecule: CC(=O)O[C@H]1C(=O)[C@@]2(C)[C@H]([C@H](OC(=O)c3ccccc3)[C@]3(O)C[C@H](OC(=O)[C@H](O)[C@@H](NC(=O)c4ccccc4)c4ccccc4)C(C)=C1C3(C)C)[C@]1(OC(C)=O)CO[C@@H]1C[C@@H]2O [Paclitaxel, paclitaxel]
EEL Area [1, 5]: 5.63 ± 0.24 mm^2 | IEL Area [1, 5]: 5.40 ± 0.24 mm^2 | Intimal Area [1, 5]: 1.048 ± 0.084 mm^2 | Lumen Area [1, 5]: 4.35 ± 0.22 mm^2 | Stenosis [1, 5]: 19.4 ± 1.5% | EEL Area [1, 6]: 5.88 ± 0.41 mm^2 | IEL Area [1, 6]: 5.58 ± 0.36 mm^2 | Intimal Area [1, 6]: 1.234 ± 0.197 mm^2 | Lumen Area [1, 6]: 4.35 ± 0.40 mm^2 | Stenosis [1, 6]: 22.2 ± 4.0% | EEL Area [1, 7]: 5.56 ± 0.26 mm^2 | IEL Area [1, 7]: 5.31 ± 0.25 mm^2 | Intimal Area [1, 7]: 1.152 ± 0.243 mm^2 | Lumen Area [1, 7]: 4.16 ± 0.27 mm^2 | Stenosis [1, 7]: 21.8 ± 5.0% | in-stent neointimal growth (in words) ([1]; Atrium high dose stents, 28 days, compared with Taxus Express): suppresses in-stent neointimal growth

Molecule: CO[C@H]1C[C@@H]2CC[C@@H](C)[C@@](O)(O2)C(=O)C(=O)N2CCCC[C@H]2C(=O)O[C@H]([C@H](C)C[C@@H]2CC[C@@H](O)[C@H](OC)C2)CC(=O)[C@H](C)/C=C(\C)[C@@H](O)[C@@H](OC)C(=O)[C@H](C)C[C@H](C)/C=C/C=C/C=C/1C [Sirolimus, Sirolimus (rapamycin)]
tolerability / adverse reaction ([2]; Atrium Flyer ALPHA-3 coated stent loaded with low or high doses of sirolimus): well tolerated, producing no adverse reaction | % Endothel. ([2]; high dose sirolimus, n = 10): 97.90 ± 4.58% | % struts with Fibrin ([2]; high dose sirolimus, n = 10): 11.99 ± 6.81% | % struts with RBC ([2]; high dose sirolimus, n = 10): 2.86 ± 3.23% | EEL Area ([2]; high dose sirolimus, n = 10): 6.24 ± 0.25 mm^2 | Fibrin Score ([2]; high dose sirolimus, n = 10): 0.11 ± 0.09 | IEL Area ([2]; high dose sirolimus, n = 10): 5.90 ± 0.25 mm^2 | Inflamm. Score ([2]; high dose sirolimus, n = 10): 0.03 ± 0.10 | Injury Score ([2]; high dose sirolimus, n = 10): 0.04 ± 0.06 | Intimal Area ([2]; high dose sirolimus, n = 10): 0.99 ± 0.10 mm^2 | Intimal Thick. ([2]; high dose sirolimus, n = 10): 0.08 ± 0.03 mm | Lumen Area ([2]; high dose sirolimus, n = 10): 4.94 ± 0.27 mm^2 | Medial Area ([2]; high dose sirolimus, n = 10): 0.34 ± 0.05 mm^2 | Medial Thick. ([2]; high dose sirolimus, n = 10): 0.06 ± 0.02 mm | Stenosis ([2]; high dose sirolimus, n = 10): 16.73 ± 1.61% | Struts with Giant cells ([2]; high dose sirolimus, n = 10, in % (unit assumed)): 2.80 ± 0.63 | % Endothel. ([2]; low dose sirolimus, n = 8): 97.62 ± 2.67% | % struts with Fibrin ([2]; low dose sirolimus, n = 8): 34.12 ± 20.62% | % struts with RBC ([2]; low dose sirolimus, n = 8): 3.46 ± 3.07% | EEL Area ([2]; low dose sirolimus, n = 8): 5.99 ± 0.44 mm^2 | Fibrin Score ([2]; low dose sirolimus, n = 8): 0.20 ± 0.35 | IEL Area ([2]; low dose sirolimus, n = 8): 5.63 ± 0.38 mm^2 | Inflamm. Score ([2]; low dose sirolimus, n = 8): 0.53 ± 0.41 | Injury Score ([2]; low dose sirolimus, n = 8): 0.06 ± 0.07 | Intimal Area ([2]; low dose sirolimus, n = 8): 0.97 ± 0.11 mm^2 | Intimal Thick. ([2]; low dose sirolimus, n = 8): 0.07 ± 0.01 mm | Lumen Area ([2]; low dose sirolimus, n = 8): 4.74 ± 0.32 mm^2 | Medial Area ([2]; low dose sirolimus, n = 8): 0.36 ± 0.09 mm^2 | Medial Thick. ([2]; low dose sirolimus, n = 8): 0.05 ± 0.01 mm | Stenosis ([2]; low dose sirolimus, n = 8): 17.15 ± 1.84% | Struts with Giant cells ([2]; low dose sirolimus, n = 8, in % (unit assumed)): 2.50 ± 1.41 | endothelialization (in words) [2, 8]: well endothelialized | healing (in words) [2, 8]: delayed healing | EEL Area [1, 5]: 6.13 ± 0.15 mm^2 | IEL Area [1, 5]: 5.80 ± 0.16 mm^2 | Intimal Area [1, 5]: 1.027 ± 0.036 mm^2 | Lumen Area [1, 5]: 4.78 ± 0.20 mm^2 | Stenosis [1, 5]: 17.7 ± 1.1% | arterial healing (in words) ([1]; rabbit, in vivo): (greater) arterial healing | % Struts with Giant cells ([1]; rabbit, in vivo, 28 days): 21.9 ± 7.6% | % struts with RBC ([1]; rabbit, in vivo, 28 days): 1.2 ± 2.4% | Endothelium (%) ([1]; rabbit, in vivo, 28 days): 97.2 ± 5.0% | Fibrin Score ([1]; rabbit, in vivo, 28 days): 0.41 ± 0.32 | Inflam Score ([1]; rabbit, in vivo, 28 days): 1.00 ± 0.72 | inflammatory response around the drug eluting stent (in words) ([3]; Rapamycin drug eluting stent, rabbit iliacs): presence of numerous giant cells and esinophils | amount of inflammation induced by overlapping drug coating ([3]; two separate rapamycin drug eluting stents overlapping in rabbit iliac vessel): increases nearly two fold

Molecule: C=CC[C@@H]1/C=C(\C)C[C@H](C)C[C@H](OC)[C@H]2O[C@@](O)(C(=O)C(=O)N3CCCC[C@H]3C(=O)O[C@H](/C(C)=C/[C@@H]3CC[C@@H](O)[C@H](OC)C3)[C@H](C)[C@@H](O)CC1=O)[C@H](C)C[C@@H]2OC [Tacrolimus]
inflammation following vascular injury (in words) [4]: effectively reduce inflammation following vascular injury

Molecule: Cyclosporin A
inflammation following vascular injury (in words) [4]: effectively reduce inflammation following vascular injury

From US20100004738A1, “DRUG DELIVERY COATING FOR USE WITH A MEDICAL DEVICE AND METHODS OF TREATING VASCULAR INJURY” (ATRIUM MEDICAL CORPORATION, priority 2005, published 2010)
